Source: patent EP4603105A1, “PHARMACEUTICAL COMPOSITION CONTAINING CYCLIC COMPOUND HAVING SELECTIVE KRAS INHIBITORY EFFECT AGAINST HRAS AND NRAS” (CHUGAI SEIYAKU KABUSHIKI KAISHA, priority 2022, dated 2024)
Where a SMILES comes first, the peptide text is derived from it. Bridges are numbered along the chain shown (N, C = ends). [ ]: non-standard residue; d: D form. hPhe(3-Cl-4-CF3) = N[C@@H](CCc1ccc(C(F)(F)F)c(Cl)c1)C(=O)O; NPrPhe(4-CF3) = CCCN[C@@H](Cc1ccc(C(F)(F)F)cc1)C(=O)O; NMeGly(cPent) = CN[C@H](C(=O)O)C1CCCC1; Pro(4,4-F2) = O=C(O)[C@@H]1CC(F)(F)CN1; Hyp = O=C(O)[C@@H]1C[C@@H](O)CN1; NMeD = CN[C@@H](CC(=O)O)C(=O)O; NMeL = CN[C@@H](CC(C)C)C(=O)O; NMeA = CN[C@@H](C)C(=O)O; Ac5c = NC1(C(=O)O)CCCC1; Aze = O=C(O)[C@@H]1CCN1; Ac4c = NC1(C(=O)O)CCC1; NEtG = CCNCC(=O)O; Sar = CNCC(=O)O

How the values were obtained:
[1] = test system: human lung cancer strain NCI-H441; format: cell-based
In short: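 Proliferation was scored by […] measured after the reagent was added to cultures kept at 37°C in 5% carbon dioxide.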

[2] = molecular target: GDP-bound NRAS wild-type protein (Homo sapiens, UniProt P01111); test: Binding to NRAS by surface plasmon resonance (SPR), KD and KD ratio to KRAS; conditions: ratio of the KD value with respect to GDP-bound NRAS wild-type protein to the KD value with respect to KRAS
In short: (§1)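 Single-cycle kinetics on GDP-loaded biotin-Avi RAS captured to ~100–300 RU; 75 s ascending injections, 100 µL/min, 30°C. HBS pH 7.4 + 10 mM MgCl2/10 µM GDP/4% DMSO. 1:1 fit, KD.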

[3] = molecular target: HRAS wild-type protein (Homo sapiens, UniProt P01112); test: Binding to HRAS by surface plasmon resonance (SPR), KD and KD ratio to KRAS; conditions: ratio of the KD value with respect to HRAS wild-type protein to the KD value with respect to KRAS
In short: as §1

Chain of GDP-bound NRAS wild-type protein (P01111 whole entry): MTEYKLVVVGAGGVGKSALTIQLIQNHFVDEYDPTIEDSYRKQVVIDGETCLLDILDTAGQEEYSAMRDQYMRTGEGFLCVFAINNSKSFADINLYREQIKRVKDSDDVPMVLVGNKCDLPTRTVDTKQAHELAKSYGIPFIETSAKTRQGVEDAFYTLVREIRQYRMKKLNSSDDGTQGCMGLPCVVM
Chain of HRAS wild-type protein (P01112 whole entry): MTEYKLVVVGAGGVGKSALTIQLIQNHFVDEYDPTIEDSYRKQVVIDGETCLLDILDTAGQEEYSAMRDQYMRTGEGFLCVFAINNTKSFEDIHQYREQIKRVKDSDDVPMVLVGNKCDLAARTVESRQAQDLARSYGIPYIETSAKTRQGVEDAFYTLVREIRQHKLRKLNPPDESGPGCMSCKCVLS

CCCN1C(=O)CN(C)C(=O)CN(CC)C(=O)[C@H]([C@@H](C)CC)NC(=O)[C@H](CC(C)C)N(C)C(=O)C[C@@H](C(=O)N(C)C)N(C)C(=O)[C@H](C2CCCC2)N(C)C(=O)C2(CCCC2)NC(=O)[C@@H]2CC(F)(F)CN2C(=O)[C@H](CCc2ccc(C(F)(F)F)c(Cl)c2)NC(=O)CN(C)C(=O)[C@@H]1Cc1ccc(C(F)(F)F)cc1 [PP0425] ([NMeL]I[NEtG][Sar][NPrPhe(4-CF3)][Sar][hPhe(3-Cl-4-CF3)][Pro(4,4-F2)][Ac5c][NMeGly(cPent)][NMeD]-NMe2; lactam N-11)
IC50 [1]: 6.5 nM | NRAS /KRAS [2]: B (a compound having 3 or more and less than 10 is denoted as B) | HRAS /KRAS [3]: C (A compound having a KD ratio of 0.1 or more and less than 3 is denoted as C)

CCCN1C(=O)CN(C)C(=O)CN(CC)C(=O)[C@H]([C@@H](C)CC)NC(=O)[C@H](CC(C)C)N(C)C(=O)C[C@@H](C(=O)N(C)C)N(C)C(=O)[C@H](C2CCCC2)N(C)C(=O)C2(CCC2)NC(=O)[C@@H]2CC(F)(F)CN2C(=O)[C@H](CCc2ccc(C(F)(F)F)c(Cl)c2)NC(=O)CN(C)C(=O)[C@@H]1Cc1ccc(C(F)(F)F)cc1 [PP0426] ([NMeL]I[NEtG][Sar][NPrPhe(4-CF3)][Sar][hPhe(3-Cl-4-CF3)][Pro(4,4-F2)][Ac4c][NMeGly(cPent)][NMeD]-NMe2; lactam N-11)
IC50 [1]: 4.8 nM | NRAS /KRAS [2]: C (A compound having a KD ratio of 0.1 or more and less than 3 is denoted as C) | HRAS /KRAS [3]: C (A compound having a KD ratio of 0.1 or more and less than 3 is denoted as C)

CCCN1C(=O)CN(C)C(=O)CN(CC)C(=O)[C@H]([C@@H](C)CC)NC(=O)[C@H](CC(C)C)N(C)C(=O)C[C@@H](C(=O)N(C)C)N(C)C(=O)[C@H](C2CCCC2)N(C)C(=O)C2(CCCC2)NC(=O)[C@@H]2C[C@@H](OCC)CN2C(=O)[C@H](CCc2ccc(C(F)(F)F)c(Cl)c2)NC(=O)CN(C)C(=O)[C@@H]1Cc1ccc(C(F)(F)F)cc1 [PP0427] ([NMeL]I[NEtG][Sar][NPrPhe(4-CF3)][Sar][hPhe(3-Cl-4-CF3)][Hyp](Et)[Ac5c][NMeGly(cPent)][NMeD]-NMe2; lactam N-11)
IC50 [1]: 2.2 nM | NRAS /KRAS [2]: B (a compound having 3 or more and less than 10 is denoted as B) | HRAS /KRAS [3]: C (A compound having a KD ratio of 0.1 or more and less than 3 is denoted as C)

CCCN1C(=O)CN(C)C(=O)CN(CC)C(=O)[C@H]([C@@H](C)CC)NC(=O)[C@H](CC(C)C)N(C)C(=O)C[C@@H](C(=O)N(C)C)N(C)C(=O)[C@H](C2CCCC2)N(C)C(=O)C2(CCC2)NC(=O)[C@@H]2C[C@@H](OCC)CN2C(=O)[C@H](CCc2ccc(C(F)(F)F)c(Cl)c2)NC(=O)CN(C)C(=O)[C@@H]1Cc1ccc(C(F)(F)F)cc1 [PP0428] ([NMeL]I[NEtG][Sar][NPrPhe(4-CF3)][Sar][hPhe(3-Cl-4-CF3)][Hyp](Et)[Ac4c][NMeGly(cPent)][NMeD]-NMe2; lactam N-11)
IC50 [1]: 4.6 nM | NRAS /KRAS [2]: B (a compound having 3 or more and less than 10 is denoted as B) | HRAS /KRAS [3]: C (A compound having a KD ratio of 0.1 or more and less than 3 is denoted as C)

CCCN1C(=O)CN(C)C(=O)[C@@H]2CCN2C(=O)[C@H]([C@@H](C)CC)NC(=O)[C@H](CC(C)C)N(C)C(=O)C[C@@H](C(=O)N(C)C)N(C)C(=O)[C@H](C2CCCC2)N(C)C(=O)C2(CCC2)NC(=O)[C@@H]2CCCN2C(=O)[C@H](CCc2ccc(C(F)(F)F)c(Cl)c2)NC(=O)CN(C)C(=O)[C@@H]1Cc1ccc(C(F)(F)F)cc1 [PP0430] ([NMeL]I[Aze][Sar][NPrPhe(4-CF3)][Sar][hPhe(3-Cl-4-CF3)]P[Ac4c][NMeGly(cPent)][NMeD]-NMe2; lactam N-11)
IC50 [1]: 27.9 nM | NRAS /KRAS [2]: B (a compound having 3 or more and less than 10 is denoted as B) | HRAS /KRAS [3]: B (a compound having 3 or more and less than 10 is denoted as B)

CCCN1C(=O)CN(C)C(=O)[C@@H]2CCN2C(=O)[C@H]([C@@H](C)CC)NC(=O)[C@H](CC(C)C)N(C)C(=O)C[C@@H](C(=O)N(C)C)N(C)C(=O)[C@H](C2CCCC2)N(C)C(=O)C2(CCCC2)NC(=O)[C@@H]2C[C@@H](OCC)CN2C(=O)[C@H](CCc2ccc(C(F)(F)F)c(Cl)c2)NC(=O)CN(C)C(=O)[C@@H]1Cc1ccc(C(F)(F)F)cc1 [PP0433] ([NMeL]I[Aze][Sar][NPrPhe(4-CF3)][Sar][hPhe(3-Cl-4-CF3)][Hyp](Et)[Ac5c][NMeGly(cPent)][NMeD]-NMe2; lactam N-11)
IC50 [1]: 11 nM | NRAS /KRAS [2]: B (a compound having 3 or more and less than 10 is denoted as B) | HRAS /KRAS [3]: B (a compound having 3 or more and less than 10 is denoted as B)

CCCN1C(=O)[C@@H]2CCN2C(=O)[C@H](C)N(C)C(=O)[C@H]([C@@H](C)CC)NC(=O)[C@H](CC(C)C)N(C)C(=O)C[C@@H](C(=O)N(C)C)N(C)C(=O)[C@H](C2CCCC2)N(C)C(=O)C2(CCC2)NC(=O)[C@@H]2CCCN2C(=O)[C@H](CCc2ccc(C(F)(F)F)c(Cl)c2)NC(=O)CN(C)C(=O)[C@@H]1Cc1ccc(C(F)(F)F)cc1 [PP0435] ([NMeL]I[NMeA][Aze][NPrPhe(4-CF3)][Sar][hPhe(3-Cl-4-CF3)]P[Ac4c][NMeGly(cPent)][NMeD]-NMe2; lactam N-11)
IC50 [1]: 2.6 nM | NRAS /KRAS [2]: C (A compound having a KD ratio of 0.1 or more and less than 3 is denoted as C) | HRAS /KRAS [3]: C (A compound having a KD ratio of 0.1 or more and less than 3 is denoted as C)

CCCN1C(=O)[C@@H]2CCN2C(=O)[C@H](C)N(C)C(=O)[C@H]([C@@H](C)CC)NC(=O)[C@H](CC(C)C)N(C)C(=O)C[C@@H](C(=O)N(C)C)N(C)C(=O)[C@H](C2CCCC2)N(C)C(=O)C2(CCCC2)NC(=O)[C@@H]2CC(F)(F)CN2C(=O)[C@H](CCc2ccc(C(F)(F)F)c(Cl)c2)NC(=O)CN(C)C(=O)[C@@H]1Cc1ccc(C(F)(F)F)cc1 [PP0436] ([NMeL]I[NMeA][Aze][NPrPhe(4-CF3)][Sar][hPhe(3-Cl-4-CF3)][Pro(4,4-F2)][Ac5c][NMeGly(cPent)][NMeD]-NMe2; lactam N-11)
IC50 [1]: 1 nM | NRAS /KRAS [2]: C (A compound having a KD ratio of 0.1 or more and less than 3 is denoted as C) | HRAS /KRAS [3]: C (A compound having a KD ratio of 0.1 or more and less than 3 is denoted as C)

CCCN1C(=O)[C@@H]2CCN2C(=O)[C@H](C)N(C)C(=O)[C@H]([C@@H](C)CC)NC(=O)[C@H](CC(C)C)N(C)C(=O)C[C@@H](C(=O)N(C)C)N(C)C(=O)[C@H](C2CCCC2)N(C)C(=O)C2(CCC2)NC(=O)[C@@H]2CC(F)(F)CN2C(=O)[C@H](CCc2ccc(C(F)(F)F)c(Cl)c2)NC(=O)CN(C)C(=O)[C@@H]1Cc1ccc(C(F)(F)F)cc1 [PP0437] ([NMeL]I[NMeA][Aze][NPrPhe(4-CF3)][Sar][hPhe(3-Cl-4-CF3)][Pro(4,4-F2)][Ac4c][NMeGly(cPent)][NMeD]-NMe2; lactam N-11)
IC50 [1]: 1.2 nM | NRAS /KRAS [2]: C (A compound having a KD ratio of 0.1 or more and less than 3 is denoted as C) | HRAS /KRAS [3]: B (a compound having 3 or more and less than 10 is denoted as B)

CCCN1C(=O)[C@@H]2CCN2C(=O)[C@H](C)N(C)C(=O)[C@H]([C@@H](C)CC)NC(=O)[C@H](CC(C)C)N(C)C(=O)C[C@@H](C(=O)N(C)C)N(C)C(=O)[C@H](C2CCCC2)N(C)C(=O)C2(CCCC2)NC(=O)[C@@H]2C[C@@H](OCC)CN2C(=O)[C@H](CCc2ccc(C(F)(F)F)c(Cl)c2)NC(=O)CN(C)C(=O)[C@@H]1Cc1ccc(C(F)(F)F)cc1 [PP0438] ([NMeL]I[NMeA][Aze][NPrPhe(4-CF3)][Sar][hPhe(3-Cl-4-CF3)][Hyp](Et)[Ac5c][NMeGly(cPent)][NMeD]-NMe2; lactam N-11)
IC50 [1]: 1 nM | NRAS /KRAS [2]: C (A compound having a KD ratio of 0.1 or more and less than 3 is denoted as C) | HRAS /KRAS [3]: C (A compound having a KD ratio of 0.1 or more and less than 3 is denoted as C)

CCCN1C(=O)[C@@H]2CCN2C(=O)CN(C)C(=O)[C@H]([C@@H](C)CC)NC(=O)[C@H](CC(C)C)N(C)C(=O)C[C@@H](C(=O)N(C)C)N(C)C(=O)[C@H](C2CCCC2)N(C)C(=O)C2(CCCC2)NC(=O)[C@@H]2CCCN2C(=O)[C@H](CCc2ccc(C(F)(F)F)c(Cl)c2)NC(=O)CN(C)C(=O)[C@@H]1Cc1ccc(C(F)(F)F)cc1 [PP0440] ([NMeL]I[Sar][Aze][NPrPhe(4-CF3)][Sar][hPhe(3-Cl-4-CF3)]P[Ac5c][NMeGly(cPent)][NMeD]-NMe2; lactam N-11)
IC50 [1]: 4.4 nM | NRAS /KRAS [2]: C (A compound having a KD ratio of 0.1 or more and less than 3 is denoted as C) | HRAS /KRAS [3]: B (a compound having 3 or more and less than 10 is denoted as B)

CCCN1C(=O)[C@@H]2CCN2C(=O)CN(C)C(=O)[C@H]([C@@H](C)CC)NC(=O)[C@H](CC(C)C)N(C)C(=O)C[C@@H](C(=O)N(C)C)N(C)C(=O)[C@H](C2CCCC2)N(C)C(=O)C2(CCC2)NC(=O)[C@@H]2CCCN2C(=O)[C@H](CCc2ccc(C(F)(F)F)c(Cl)c2)NC(=O)CN(C)C(=O)[C@@H]1Cc1ccc(C(F)(F)F)cc1 [PP0441] ([NMeL]I[Sar][Aze][NPrPhe(4-CF3)][Sar][hPhe(3-Cl-4-CF3)]P[Ac4c][NMeGly(cPent)][NMeD]-NMe2; lactam N-11)
IC50 [1]: 3.4 nM | NRAS /KRAS [2]: C (A compound having a KD ratio of 0.1 or more and less than 3 is denoted as C) | HRAS /KRAS [3]: C (A compound having a KD ratio of 0.1 or more and less than 3 is denoted as C)
